Earlier results, collected in patent US8178547B2, “Heterocyclic antiviral compounds” (Roche Palo Alto LLC, priority 2008, dated 2012).

Test system: HCV
Settings: cited from earlier work

**Q.** With `NC(=O)c1ncn([C@@H]2O[C@H](CO)[C@@H](O)[C@H]2O)n1` [ribavirin, 1-((2R,3R,4S,5R)-3,4-Dihydroxy-5-hydroxymethyl-tetrahydro-furan-2-yl)-1H[1,2,4]triazole-3-carboxylic acid amide] as the molecule, how does the “serum levels of HCV-RNA” value (monotherapy / sole treatment) read?
**A.** does not lower serum levels of HCV-RNA

**Q.** And the “patients with serum amino transferase levels reduced to normal” value (monotherapy)?
**A.** 40%
